For the assay, the system named is test plant species. Nature of the assay: Post-emergent herbicidal activity test (greenhouse, foliar spray, visual growth reduction). Type of assay: in vivo. The conditions noted are these: post-emergence, 336 h, 140 g ai/ha. Summed up:
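Visual percent injury (0-100) rated 14 d after treatment, relative to nontreated and solvent-blank plants. Test plants at first or second true leaf stage received an overhead track-sprayer application at 187 L/ha. Compounds were formulated in aqueous acetone/DMSO carrier containing crop oil concentrate and X-77 surfactant.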

Where [1] appears, read: ECHCG: barnyardgrass (Echinochloa crus-galli), 14 days after application, read-out: Visual Growth Reduction (%) 14 Days After Application, ECHCG.
[2] abbreviates: IPOHE: ivy-leaf morning glory (Ipomoea hederacea), 14 days after application, read-out: Visual Growth Reduction (%) 14 Days After Application, IPOHE.
The mark [3] stands for this setting: KCHSC: kochia (Bassia scoparia), 14 days after application, read-out: Visual Growth Reduction (%) 14 Days After Application, KCHSC.
[4] abbreviates: ORYSA: rice (Oryza sativa), 14 days after application, read-out: Visual Growth Reduction (%) 14 Days After Application, ORYSA.
The mark [5] stands for this setting: SETFA: giant foxtail (Setaria faberi), 14 days after application, read-out: Visual Growth Reduction (%) 14 Days After Application, SETFA.
Where [6] appears, read: SORVU: grain sorghum (Sorghum vulgare), 14 days after application, read-out: Visual Growth Reduction (%) 14 Days After Application, SORVU.
[7] abbreviates: STEME: common chickweed (Stellaria media), 14 days after application, read-out: Visual Growth Reduction (%) 14 Days After Application, STEME.
The mark [8] stands for this setting: TRZAS: wheat, spring (Triticum aestivum), 14 days after application, read-out: Visual Growth Reduction (%) 14 Days After Application, TRZAS.
[9] abbreviates: blackgrass (Alopecurus myosuroides), 14 Days After Application, read-out: Visual Growth Reduction (%) ALOMY.
[10] abbreviates: canada thistle (Cirsium arvense), 14 Days After Application, read-out: Visual Growth Reduction (%) CIRAR.
The mark [11] stands for this setting: crabgrass (Digitaria sanguinalis), 14 Days After Application, read-out: Visual Growth Reduction (%) DIGSA.
Where [12] appears, read: lambsquarters (Chenopodium album), 14 Days After Application, read-out: Visual Growth Reduction (%) CHEAL.
The mark [13] stands for this setting: redroot pigweed (Amaranthus retroflexus), 14 Days After Application, read-out: Visual Growth Reduction (%) AMARE.
Where [14] appears, read: wild oat (Avena fatua), 14 Days After Application, read-out: Visual Growth Reduction (%) AVEFA.
The mark [15] stands for this setting: yellow nutsedge (Cyperus esculentus), 14 Days After Application, read-out: Visual Growth Reduction (%) CYPES.

Like-named read-outs stand apart in the source and are kept apart here.

`COC(=O)c1nc(-c2ccc3cc[nH]c3c2)c(F)cc1Cl` [F320, Methyl 3-chloro-5-fluoro-6-(1H-indol-6-yl)picolinate]: the pest or weed control at 140 g/ha reads like this: under setting [1], 0 to 29%; under setting [2], 60 to 74%; under setting [3], 0 to 29%; under setting [4], 0 to 29%; under setting [5], 0 to 29%; under setting [6], 0 to 29%. The pest or weed control at 140 g/ha is, setting by setting: under setting [7], 0 to 29%; under setting [8], 0 to 29%; under setting [9], 0 to 29%; under setting [10], 30 to 44%; under setting [11], 0 to 29%; under setting [12], 60 to 74%. In addition, the pest or weed control at 140 g/ha is, setting by setting: under setting [13], 0 to 29%; under setting [14], 0 to 29%; under setting [15], 0 to 29%.
With `COC(=O)c1nc(-c2cc(C#N)c(C(F)(F)F)cc2Cl)c(F)cc1Cl` [F321, Methyl 3-chloro-6-(2-chloro-5-cyano-4-(trifluoromethyl)phenyl)-5-fluoropicolinate], the pest or weed control at 140 g/ha runs as follows: under setting [1], 30 to 44%; under setting [2], 85 to 94%; under setting [3], 0 to 29%; under setting [4], 0 to 29%; under setting [5], 75 to 84%; under setting [6], 95 to 100%. Moreover, the pest or weed control at 140 g/ha fell in the range of 0 to 29% under setting [7]; 30 to 44% under setting [8]; 0 to 29% under setting [9]; 75 to 84% under setting [10]; 85 to 94% under setting [11]; 95 to 100% under setting [12]. Further, the pest or weed control at 140 g/ha lay within 30 to 44% under setting [13], 75 to 84% under setting [14] and 0 to 29% under setting [15].
As for `COC(=O)c1nc(-c2cc([N+](=O)[O-])c(C(F)(F)F)cc2Cl)c(F)cc1Cl` [F322, Methyl 3-chloro-6-(2-chloro-5-nitro-4-(trifluoromethyl)phenyl)-5-fluoropicolinate], the pest or weed control at 140 g/ha was in the range of 0 to 29% under setting [1]; 95 to 100% under setting [2]; 0 to 29% under setting [3]; 0 to 29% under setting [4]; 0 to 29% under setting [5]; 0 to 29% under setting [6]. Further, the pest or weed control at 140 g/ha under setting [7] fell in the range of 0 to 29%; the pest or weed control at 140 g/ha under setting [8] fell in the range of 0 to 29%; the pest or weed control at 140 g/ha under setting [9] lay in the range of 0 to 29%; the pest or weed control at 140 g/ha under setting [10] lay in the range of 30 to 44%; the pest or weed control at 140 g/ha under setting [11] was 0 to 29%; the pest or weed control at 140 g/ha under setting [12] lay in the range of 75 to 84%. The pest or weed control at 140 g/ha under setting [13] lay within 60 to 74%, the pest or weed control at 140 g/ha under setting [14] was 0 to 29% and the pest or weed control at 140 g/ha under setting [15] was in the range of 0 to 29%.
Consider `COC(=O)c1nc(-c2cc(F)c(C(F)(F)F)cc2F)ccc1Cl` [F323, Methyl 3-chloro-6-(2,5-difluoro-4-(trifluoromethyl)phenyl)picolinate], for which the pest or weed control at 140 g/ha runs as follows: under setting [1], 0 to 29%; under setting [2], 95 to 100%; under setting [3], 30 to 44%; under setting [4], 0 to 29%; under setting [5], 30 to 44%; under setting [6], 85 to 94%. For the same compound, the pest or weed control at 140 g/ha fell in the range of 0 to 29% under setting [7]; 0 to 29% under setting [8]; 0 to 29% under setting [9]; 45 to 59% under setting [10]; 75 to 84% under setting [11]; 85 to 94% under setting [12]. Further, the pest or weed control at 140 g/ha is, setting by setting: under setting [13], 75 to 84%; under setting [14], 0 to 29%; under setting [15], 45 to 59%.
Turning to `COC(=O)c1nc(-c2cc(F)c(C(F)(F)F)cc2F)c(F)cc1Cl` [F324, Methyl 3-chloro-6-(2,5-difluoro-4-(trifluoromethyl)phenyl)-5-fluoropicolinate], the pest or weed control at 140 g/ha by setting is: under setting [1], 0 to 29%; under setting [2], 95 to 100%; under setting [3], 85 to 94%; under setting [4], 0 to 29%; under setting [5], 60 to 74%; under setting [6], 75 to 84%. The pest or weed control at 140 g/ha lay in the range of 0 to 29% under setting [7]; 45 to 59% under setting [8]; 30 to 44% under setting [9]; 95 to 100% under setting [11]; 85 to 94% under setting [12]; 95 to 100% under setting [13]. For the same compound, the pest or weed control at 140 g/ha runs as follows: under setting [14], 30 to 44%; under setting [15], 60 to 74%.
With `COC(=O)c1nc(-c2cc(F)c(C(F)(F)F)cc2F)c(Cl)cc1Cl` [F325, Methyl 3,5-dichloro-6-(2,5-difluoro-4-(trifluoromethyl)phenyl)picolinate], the pest or weed control at 140 g/ha was 0 to 29% under setting [1]; 95 to 100% under setting [2]; 0 to 29% under setting [3]; 0 to 29% under setting [4]; 30 to 44% under setting [5]; 85 to 94% under setting [6]. Moreover, the pest or weed control at 140 g/ha was 0 to 29% under setting [7]; 0 to 29% under setting [8]; 0 to 29% under setting [9]; 85 to 94% under setting [10]; 75 to 84% under setting [11]; 95 to 100% under setting [12]. Also, the pest or weed control at 140 g/ha lay within 60 to 74% under setting [13], 0 to 29% under setting [14] and 0 to 29% under setting [15].
For the compound `COC(=O)c1nc(-c2cc(C#N)c(C(F)(F)F)cc2Cl)ccc1Cl` [F326, Methyl 3-chloro-6-(2-chloro-5-cyano-4-(trifluoromethyl)phenyl)picolinate], the pest or weed control at 140 g/ha was in the range of 75 to 84% under setting [1]; 0 to 29% under setting [2]; 0 to 29% under setting [3]; 0 to 29% under setting [4]; 30 to 44% under setting [5]; 95 to 100% under setting [6]. The pest or weed control at 140 g/ha under setting [7] lay within 0 to 29%; the pest or weed control at 140 g/ha under setting [8] was 0 to 29%; the pest or weed control at 140 g/ha under setting [9] was 0 to 29%; the pest or weed control at 140 g/ha under setting [10] lay in the range of 45 to 59%; the pest or weed control at 140 g/ha under setting [11] was 75 to 84%; the pest or weed control at 140 g/ha under setting [12] lay in the range of 60 to 74%. Further, the pest or weed control at 140 g/ha is, setting by setting: under setting [13], 0 to 29%; under setting [14], 0 to 29%; under setting [15], 0 to 29%.
In the case of `COC(=O)c1nc(-c2cc3nonc3cc2F)c(Cl)cc1Cl` [F327, Methyl 3,5-dichloro-6-(6-fluorobenzo[c][1,2,5]oxadiazol-5-yl)picolinate], the pest or weed control at 140 g/ha under setting [1] lay within 0 to 29%; the pest or weed control at 140 g/ha under setting [2] fell in the range of 75 to 84%; the pest or weed control at 140 g/ha under setting [3] lay in the range of 0 to 29%; the pest or weed control at 140 g/ha under setting [4] fell in the range of 0 to 29%; the pest or weed control at 140 g/ha under setting [5] is 30 to 44%; the pest or weed control at 140 g/ha under setting [6] fell in the range of 0 to 29%. Further, the pest or weed control at 140 g/ha reads like this: under setting [7], 0 to 29%; under setting [8], 0 to 29%; under setting [9], 0 to 29%; under setting [10], 0 to 29%; under setting [11], 0 to 29%; under setting [12], 30 to 44%. Also, the pest or weed control at 140 g/ha runs as follows: under setting [13], 30 to 44%; under setting [14], 0 to 29%; under setting [15], 0 to 29%.
As for `COC(=O)c1nc(-c2ccc(I)cc2F)c(F)cc1Cl` [F328, methyl 3-chloro-5-fluoro-6-(2-fluoro-4-iodophenyl)picolinate], the pest or weed control at 140 g/ha by setting is: under setting [1], 0 to 29%; under setting [2], 85 to 94%; under setting [3], 0 to 29%; under setting [4], 0 to 29%; under setting [5], 30 to 44%; under setting [6], 75 to 84%. For the same compound, the pest or weed control at 140 g/ha was in the range of 0 to 29% under setting [7]; 0 to 29% under setting [8]; 0 to 29% under setting [9]; 0 to 29% under setting [10]; 75 to 84% under setting [11]; 0 to 29% under setting [12]. Further, the pest or weed control at 140 g/ha under setting [13] is 30 to 44%, the pest or weed control at 140 g/ha under setting [14] was in the range of 0 to 29% and the pest or weed control at 140 g/ha under setting [15] was in the range of 0 to 29%.
